# Earlier results, collected in patent publication US20150208691A1, “NOVEL USE OF ALKOXYLATES OF MONO- AND POLYVALENT ALCOHOLS” (AB AGRI LIMITED, priority 2012, published 2015).
# Where two headings read alike, the source gives them in different places.
# Assays:
# methane emissions [1] = details: sheep
# methane emissions [2] = details: cows, compared with sheep
structure (smiles),measurement,setting,value
C=CCS[S+]([O-])CC=C (centres unmarked) [Allicin],reduction of methane emissions,methane emissions [1],20%
same,reduction of methane emissions,methane emissions [2],not as effective
